According to ChEMBL document CHEMBL5360622, “Leucettinibs, a Class of DYRK/CLK Kinase Inhibitors Inspired by the Marine Sponge Natural Product Leucettamine B” (J Med Chem, 2023):

How the values were obtained:
[1] = target: Glycogen synthase kinase-3 beta (Homo sapiens, UniProt P49841); type: cell-based, Sf9
[2] = target: Casein kinase I isoform epsilon (Homo sapiens, UniProt P49674)
[3] = target: T1, Dual specificity tyrosine-phosphorylation-regulated kinase 4 (Homo sapiens, UniProt Q9NR20)
T1 sequence (Q9NR20 whole entry): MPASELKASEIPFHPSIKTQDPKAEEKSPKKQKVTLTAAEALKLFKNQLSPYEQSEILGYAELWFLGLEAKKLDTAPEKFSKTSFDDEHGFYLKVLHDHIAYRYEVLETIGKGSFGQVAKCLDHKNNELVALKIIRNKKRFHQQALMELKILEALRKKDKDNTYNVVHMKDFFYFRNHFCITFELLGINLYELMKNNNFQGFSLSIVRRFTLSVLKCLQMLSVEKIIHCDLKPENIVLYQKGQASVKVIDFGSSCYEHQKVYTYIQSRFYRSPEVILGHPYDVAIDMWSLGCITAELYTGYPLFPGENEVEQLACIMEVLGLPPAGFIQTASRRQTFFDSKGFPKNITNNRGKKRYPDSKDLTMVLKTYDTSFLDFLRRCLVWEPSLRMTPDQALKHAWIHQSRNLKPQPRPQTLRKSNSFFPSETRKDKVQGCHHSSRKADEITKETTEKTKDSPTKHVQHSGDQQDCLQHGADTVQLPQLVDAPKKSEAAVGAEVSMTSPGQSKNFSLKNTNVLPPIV

[4] = target: Cyclin-dependent kinase 5/CDK5 activator 1 (Homo sapiens, UniProt Q00535); type: cell-based, Sf9
[5] = target: Dual specificity protein kinase CLK2 (Homo sapiens, UniProt P49760)
[6] = target: T2, Dual specificity tyrosine-phosphorylation-regulated kinase 2 (Homo sapiens, UniProt Q92630)
T2 sequence (Q92630 whole entry): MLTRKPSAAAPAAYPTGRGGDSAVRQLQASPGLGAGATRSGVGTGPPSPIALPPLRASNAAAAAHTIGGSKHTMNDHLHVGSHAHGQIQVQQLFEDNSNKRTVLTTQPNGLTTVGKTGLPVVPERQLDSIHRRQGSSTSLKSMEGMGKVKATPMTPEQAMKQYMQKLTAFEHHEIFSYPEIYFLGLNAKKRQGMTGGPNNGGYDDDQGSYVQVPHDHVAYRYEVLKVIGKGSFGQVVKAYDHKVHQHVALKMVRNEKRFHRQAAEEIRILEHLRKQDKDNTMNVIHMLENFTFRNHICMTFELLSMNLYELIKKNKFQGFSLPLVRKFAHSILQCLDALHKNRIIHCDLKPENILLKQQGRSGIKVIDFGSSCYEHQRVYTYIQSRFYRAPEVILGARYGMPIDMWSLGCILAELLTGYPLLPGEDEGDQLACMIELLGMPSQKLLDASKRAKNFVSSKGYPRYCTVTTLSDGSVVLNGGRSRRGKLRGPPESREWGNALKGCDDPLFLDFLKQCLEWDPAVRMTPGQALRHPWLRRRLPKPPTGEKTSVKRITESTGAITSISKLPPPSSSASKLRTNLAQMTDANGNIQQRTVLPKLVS

[7] = target: Dual specificity protein kinase CLK3 (Homo sapiens, UniProt P49761); type: cell-based, Sf9
Dual specificity protein kinase CLK3, sequence (P49761 whole entry): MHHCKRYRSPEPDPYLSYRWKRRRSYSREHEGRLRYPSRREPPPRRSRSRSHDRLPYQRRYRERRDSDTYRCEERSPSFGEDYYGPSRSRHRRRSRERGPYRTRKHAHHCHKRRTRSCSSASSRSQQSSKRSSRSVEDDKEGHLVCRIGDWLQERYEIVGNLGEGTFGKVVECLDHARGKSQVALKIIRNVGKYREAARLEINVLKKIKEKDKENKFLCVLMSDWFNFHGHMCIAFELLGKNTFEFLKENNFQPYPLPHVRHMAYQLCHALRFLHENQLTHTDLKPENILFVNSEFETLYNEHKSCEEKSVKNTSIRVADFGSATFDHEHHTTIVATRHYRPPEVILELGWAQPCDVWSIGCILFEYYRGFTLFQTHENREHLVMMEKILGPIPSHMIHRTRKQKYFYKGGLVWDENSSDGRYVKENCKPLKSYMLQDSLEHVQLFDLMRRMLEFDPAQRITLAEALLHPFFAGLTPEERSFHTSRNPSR

Dual specificity protein kinase CLK2, sequence (P49760 whole entry): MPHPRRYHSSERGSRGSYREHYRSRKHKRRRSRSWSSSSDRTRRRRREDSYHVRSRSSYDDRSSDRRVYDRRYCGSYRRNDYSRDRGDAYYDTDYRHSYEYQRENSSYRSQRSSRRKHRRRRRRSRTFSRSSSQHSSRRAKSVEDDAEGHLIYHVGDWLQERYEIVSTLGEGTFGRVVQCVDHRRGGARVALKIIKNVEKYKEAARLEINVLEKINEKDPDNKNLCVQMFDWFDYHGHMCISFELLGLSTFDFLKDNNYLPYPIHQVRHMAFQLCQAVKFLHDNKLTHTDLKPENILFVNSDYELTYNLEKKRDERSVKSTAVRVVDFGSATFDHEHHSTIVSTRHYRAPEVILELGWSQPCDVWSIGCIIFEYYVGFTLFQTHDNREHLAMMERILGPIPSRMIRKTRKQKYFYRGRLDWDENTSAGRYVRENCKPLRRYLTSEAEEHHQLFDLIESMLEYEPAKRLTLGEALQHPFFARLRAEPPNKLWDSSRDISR
Casein kinase I isoform epsilon, sequence (P49674 whole entry, canonical isoform): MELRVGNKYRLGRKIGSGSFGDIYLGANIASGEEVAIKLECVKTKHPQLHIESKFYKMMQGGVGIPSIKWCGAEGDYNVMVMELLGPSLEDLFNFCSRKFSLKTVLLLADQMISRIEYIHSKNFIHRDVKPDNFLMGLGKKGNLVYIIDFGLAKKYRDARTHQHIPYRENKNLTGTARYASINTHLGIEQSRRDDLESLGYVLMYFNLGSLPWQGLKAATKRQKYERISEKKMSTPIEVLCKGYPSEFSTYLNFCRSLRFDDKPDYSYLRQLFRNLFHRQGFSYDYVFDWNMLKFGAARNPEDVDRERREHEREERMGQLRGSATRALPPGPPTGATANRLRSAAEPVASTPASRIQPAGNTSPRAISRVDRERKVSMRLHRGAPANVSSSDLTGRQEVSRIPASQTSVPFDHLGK
Cyclin-dependent kinase 5/CDK5 activator 1, sequence (Q00535 whole entry): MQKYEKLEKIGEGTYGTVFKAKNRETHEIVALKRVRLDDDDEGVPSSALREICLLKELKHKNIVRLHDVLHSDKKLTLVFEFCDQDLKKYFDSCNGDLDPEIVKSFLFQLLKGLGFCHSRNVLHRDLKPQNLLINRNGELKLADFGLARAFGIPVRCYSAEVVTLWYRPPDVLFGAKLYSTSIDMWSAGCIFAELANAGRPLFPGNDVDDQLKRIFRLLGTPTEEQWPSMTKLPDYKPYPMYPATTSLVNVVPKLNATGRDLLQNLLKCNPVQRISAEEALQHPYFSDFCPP
Cyclin-dependent kinase 5/CDK5 activator 1, sequence (Q15078 whole entry, further chain): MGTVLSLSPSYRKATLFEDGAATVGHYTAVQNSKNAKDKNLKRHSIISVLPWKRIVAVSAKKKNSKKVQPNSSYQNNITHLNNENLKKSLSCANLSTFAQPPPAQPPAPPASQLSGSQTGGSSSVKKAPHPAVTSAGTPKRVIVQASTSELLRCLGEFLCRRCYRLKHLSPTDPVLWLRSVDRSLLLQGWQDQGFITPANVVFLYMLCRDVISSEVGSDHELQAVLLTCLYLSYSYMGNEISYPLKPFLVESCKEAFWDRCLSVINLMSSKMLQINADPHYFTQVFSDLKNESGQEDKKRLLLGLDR
Glycogen synthase kinase-3 beta, sequence (P49841 whole entry, canonical isoform): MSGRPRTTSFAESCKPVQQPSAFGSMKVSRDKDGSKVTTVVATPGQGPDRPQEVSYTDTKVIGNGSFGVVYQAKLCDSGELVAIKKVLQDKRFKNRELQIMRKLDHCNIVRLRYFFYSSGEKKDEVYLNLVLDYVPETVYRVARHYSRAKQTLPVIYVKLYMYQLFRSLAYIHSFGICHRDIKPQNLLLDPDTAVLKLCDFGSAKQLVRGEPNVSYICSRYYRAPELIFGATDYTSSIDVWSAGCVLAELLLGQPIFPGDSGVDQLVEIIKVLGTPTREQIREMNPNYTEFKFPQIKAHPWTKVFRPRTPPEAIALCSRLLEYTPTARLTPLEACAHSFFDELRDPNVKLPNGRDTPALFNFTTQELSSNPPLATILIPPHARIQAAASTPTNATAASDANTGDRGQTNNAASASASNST

Row | Structure (SMILES) | IC50 [1] [nM] | IC50 [2] [µM] | IC50 [3] [nM] | IC50 [4] [µM] | IC50 [5] [nM] | IC50 [6] [nM] | IC50 [7] [nM]
1 | CNCC(NC1=N/C(=C\c2ccc3ncsc3c2)C(=O)N1)c1ccccc1 (racemic) | 227 | 6.35 | 274 | 2.01 | 30 | – | –
2 | O=C1NC(N[C@H]2CC[C@H](O)CC2)=N/C1=C\c1ccc2ncsc2c1 | 9620 | > 10 | 1770 | 4.95 | 98 | 625 | 392
3 | O=C1NC(NCc2cccnc2)=N/C1=C\c1ccc2ncsc2c1 | 2840 | > 10 | 1380 | > 10 | 53 | 2010 | 716
4 | O=C1NC(Nc2cccnc2)=N/C1=C\c1ccc2ncsc2c1 | > 10000 | > 10 | 1330 | > 10 | 84 | – | 201
5 | NC[C@H](NC1=N/C(=C\c2ccc3ncsc3c2)C(=O)N1)c1ccccc1 | 1110 | – | – | 2.34 | – | – | –
6 | O=C1NC(N[C@@H]2CCC[C@@H]2O)=N/C1=C\c1ccc2ncsc2c1 (racemic) | > 10000 | > 10 | 448 | > 10 | – | 1210 | 537
7 | O=C1NC(NC2C3CC4CC(C3)CC2C4)=N/C1=C\c1ccc2ncsc2c1 (centres undefined) | 4760 | > 10 | 127 | > 10 | 19 | 573 | 1210
8 | CN1CCN(c2ccc(NC3=N/C(=C\c4ccc5ncsc5c4)C(=O)N3)cc2)CC1 | 999 | 3.43 | 244 | > 10 | 28 | – | 1060
9 | CC[C@@H](CO)NC1=N/C(=C\c2ccc3ncsc3c2)C(=O)N1 | > 10000 | > 10 | 3160 | > 10 | 474 | 1730 | 1600
10 | COc1nc(C)ccc1NC1=N/C(=C\c2ccc3ncsc3c2)C(=O)N1 | 8970 | > 10 | – | > 10 | – | 1870 | > 10000
11 | O=C1NC(N[C@@H](CO)CC2CC2)=N/C1=C\c1ccc2ncsc2c1 | 4390 | > 10 | 731 | > 10 | 42 | 8210 | 686
12 | CN(C)C12CC3CC(CC(NC4=N/C(=C\c5ccc6ncsc6c5)C(=O)N4)(C3)C1)C2 | 1330 | 1.48 | 411 | 5.01 | – | – | 1800
13 | O=C1NC(NC23CC4CC(CC(F)(C4)C2)C3)=N/C1=C\c1ccc2ncsc2c1 | 169 | 0.612 | – | 0.146 | – | – | 194
14 | COC[C@H](NC1=N/C(=C\c2ccc3ncsc3c2)C(=O)N1)c1ccccc1 | 5170 | > 10 | 335 | > 10 | 15 | 159 | 127
15 | O=C1NC(NC23CC4CC(CC2C4)C3)=N/C1=C\c1ccc2ncsc2c1 | 855 | 2.43 | – | 3.21 | – | – | 114
16 | CN1CCN(c2ncc(NC3=N/C(=C\c4ccc5ncsc5c4)C(=O)N3)cn2)CC1 | 1190 | > 10 | 294 | > 10 | 143 | 175 | 1920
17 | CC[C@H](CO)NC1=N/C(=C\c2ccc3ncsc3c2)C(=O)N1 | > 10000 | > 10 | 1600 | > 10 | 216 | 1550 | 1150
